Where a chain is given by its changes, count along the chain named.
Experiments:
Assay type in all cases: biochemical
[1] = target: T1, MSD1 (MnSOD; manganese SOD1) (Arabidopsis thaliana, UniProt O81235, Y63F); assay: SOD activity after peroxynitrite treatment; conditions: covalent (tyrosine nitration); 20 min, RT, dark; potassium phosphate pH 8.0
T1 sequence (O81235 1-231 Y63F): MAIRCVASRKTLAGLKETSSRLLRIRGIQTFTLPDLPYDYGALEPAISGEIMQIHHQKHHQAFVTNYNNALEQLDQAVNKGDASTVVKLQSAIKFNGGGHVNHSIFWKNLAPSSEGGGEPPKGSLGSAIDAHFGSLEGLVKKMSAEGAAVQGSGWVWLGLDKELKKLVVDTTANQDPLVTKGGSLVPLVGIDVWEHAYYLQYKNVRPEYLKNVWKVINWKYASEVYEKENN

[2] = target: T2, CSD3 (Cu/ZnSOD3; peroxisomal copper/zinc SOD3) (Arabidopsis thaliana, UniProt Q9FK60); assay: SOD activity after peroxynitrite treatment (cytochrome c reduction); conditions: covalent (tyrosine nitration, Tyr115); 20 min, RT, dark; potassium phosphate pH 8.0
T2 sequence (Q9FK60 1-164): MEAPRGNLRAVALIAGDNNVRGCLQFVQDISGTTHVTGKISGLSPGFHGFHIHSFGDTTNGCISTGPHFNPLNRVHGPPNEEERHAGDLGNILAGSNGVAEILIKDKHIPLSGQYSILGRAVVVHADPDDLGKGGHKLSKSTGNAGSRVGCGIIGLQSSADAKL

[3] = target: T3, MSD1 (MnSOD; manganese SOD1) (Arabidopsis thaliana, UniProt O81235); assay: as above; conditions: covalent (tyrosine nitration, mainly Tyr63); 20 min, RT, dark; potassium phosphate pH 8.0
T3 sequence (O81235 1-231): T1 sequence (O81235 1-231 Y63F) with F63Y

[4] = target: T4, FSD3 (FeSOD3; chloroplastic iron SOD3) (Arabidopsis thaliana, UniProt Q9FMX0); assay: as above; conditions: covalent (tyrosine nitration); 20 min, RT, dark; potassium phosphate pH 8.0
T4 sequence (Q9FMX0 1-263 limits assumed): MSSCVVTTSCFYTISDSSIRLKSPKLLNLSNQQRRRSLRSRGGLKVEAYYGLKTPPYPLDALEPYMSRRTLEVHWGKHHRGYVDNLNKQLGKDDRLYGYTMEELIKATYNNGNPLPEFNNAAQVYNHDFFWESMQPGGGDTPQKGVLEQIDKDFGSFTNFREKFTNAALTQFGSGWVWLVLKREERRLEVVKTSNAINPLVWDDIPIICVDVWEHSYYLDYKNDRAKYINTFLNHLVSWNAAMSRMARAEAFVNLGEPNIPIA

CSD1 (Cu/ZnSOD1) = target: T5, CSD1 (Cu/ZnSOD1) (Arabidopsis thaliana, UniProt P24704); assay: NBT-formazan SOD assay (xanthine/xanthine oxidase); conditions: superoxide generated by xanthine oxidase; 570 nm
T5 sequence (P24704 1-152): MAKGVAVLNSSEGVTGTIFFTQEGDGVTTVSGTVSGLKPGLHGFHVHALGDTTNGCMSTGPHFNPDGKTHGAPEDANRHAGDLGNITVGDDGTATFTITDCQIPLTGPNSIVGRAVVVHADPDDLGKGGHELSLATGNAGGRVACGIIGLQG

FSD2 = target: T6, FSD2 (Arabidopsis thaliana, UniProt Q9LU64); assay: NBT-formazan SOD assay (xanthine/xanthine oxidase); conditions: superoxide generated by xanthine oxidase; 570 nm
T6 sequence (Q9LU64 1-305 limits assumed): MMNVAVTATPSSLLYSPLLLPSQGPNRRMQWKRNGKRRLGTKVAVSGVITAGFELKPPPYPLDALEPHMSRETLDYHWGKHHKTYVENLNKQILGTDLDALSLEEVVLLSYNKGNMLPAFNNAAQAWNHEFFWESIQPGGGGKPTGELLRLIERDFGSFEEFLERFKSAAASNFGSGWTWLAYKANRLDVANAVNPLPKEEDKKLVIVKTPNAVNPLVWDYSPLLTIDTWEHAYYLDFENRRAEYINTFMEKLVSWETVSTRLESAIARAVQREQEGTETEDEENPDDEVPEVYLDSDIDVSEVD

FSD1 = target: T7, FSD1 (Arabidopsis thaliana, UniProt P21276); assay: NBT-formazan SOD assay (xanthine/xanthine oxidase); conditions: superoxide generated by xanthine oxidase; 570 nm
T7 sequence (P21276 1-212): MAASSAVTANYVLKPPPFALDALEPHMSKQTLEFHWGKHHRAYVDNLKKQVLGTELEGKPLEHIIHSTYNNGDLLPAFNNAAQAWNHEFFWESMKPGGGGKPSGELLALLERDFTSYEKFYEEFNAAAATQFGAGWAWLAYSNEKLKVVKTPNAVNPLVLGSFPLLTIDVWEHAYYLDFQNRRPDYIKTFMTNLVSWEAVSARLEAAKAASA

CSD2 (Cu/ZnSOD2) = target: T8, CSD2 (Cu/ZnSOD2) (Arabidopsis thaliana, UniProt O78310); assay: NBT-formazan SOD assay (xanthine/xanthine oxidase); conditions: superoxide generated by xanthine oxidase; 570 nm
T8 sequence (O78310 1-216 limits assumed): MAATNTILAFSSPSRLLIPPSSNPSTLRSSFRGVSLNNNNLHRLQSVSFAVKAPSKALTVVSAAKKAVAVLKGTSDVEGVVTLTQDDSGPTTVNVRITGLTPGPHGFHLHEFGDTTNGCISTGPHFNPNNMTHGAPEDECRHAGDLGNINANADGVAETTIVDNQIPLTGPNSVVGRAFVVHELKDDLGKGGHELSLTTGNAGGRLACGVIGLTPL

[5] = target: T2, CSD3 (Cu/ZnSOD3; peroxisomal copper/zinc SOD3); assay: NBT-formazan SOD assay (xanthine/xanthine oxidase); conditions: superoxide generated by xanthine oxidase; 570 nm
[6] = target: T3, MSD1 (MnSOD; manganese SOD1); assay: NBT-formazan SOD assay (xanthine/xanthine oxidase); conditions: superoxide generated by xanthine oxidase; 570 nm
[7] = target: T4, FSD3 (FeSOD3; chloroplastic iron SOD3); assay: NBT-formazan SOD assay (xanthine/xanthine oxidase); conditions: superoxide generated by xanthine oxidase; 570 nm

O=NOO [peroxynitrite]
% inhibition at 500 μM [1]: 30%
% remaining activity at 500 μM [2]: 65%
% inhibition at 500 μM [3]: ~ 90%
% remaining activity at 500 μM [4]: 65%

[O]O [superoxide]
NBT-formazan SOD assay (xanthine/xanthine oxidase) (CSD1 (Cu/ZnSOD1)): The activity of the purified, recombinant SODs was determined using the nitroblue tetrazolium (NBT)–formazan method
NBT-formazan SOD assay (xanthine/xanthine oxidase) (FSD2): The activity of the purified, recombinant SODs was determined using the nitroblue tetrazolium (NBT)–formazan method
NBT-formazan SOD assay (xanthine/xanthine oxidase) (FSD1): The activity of the purified, recombinant SODs was determined using the nitroblue tetrazolium (NBT)–formazan method
NBT-formazan SOD assay (xanthine/xanthine oxidase) (CSD2 (Cu/ZnSOD2)): The activity of the purified, recombinant SODs was determined using the nitroblue tetrazolium (NBT)–formazan method
NBT-formazan SOD assay (xanthine/xanthine oxidase) [5]: The activity of the purified, recombinant SODs was determined using the nitroblue tetrazolium (NBT)–formazan method
NBT-formazan SOD assay (xanthine/xanthine oxidase) [6]: The activity of the purified, recombinant SODs was determined using the nitroblue tetrazolium (NBT)–formazan method
NBT-formazan SOD assay (xanthine/xanthine oxidase) [7]: The activity of the purified, recombinant SODs was determined using the nitroblue tetrazolium (NBT)–formazan method
